In PubChem BioAssay AID248 (DTP/NCI, 2004):
Several values for one entry are separate records, joined by “and”; a condition that tells them apart may be missing. Identical values can stand only once. Inconclusive results and toxic doses are left out. Cut-off read from the data, not from the text of the source: active = T/C of 150% or more; inactive = T/C below 125%.

Test system: L1210 leukemia ip in BDF1 mice, survival T/C
Test: NCI In Vivo Anticancer Drug Screen. Data for tumor model L1210 Leukemia (intraperitoneal) in B6D2F1 (BDF1) mice
Conditions: endpoint: mean survival time, higher = longer survival
Method in brief: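 Ratio derived from survival: compound-dosed mice over vehicle-dosed mice, all bearing a transplantable tumor.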

[1] = dose: 100.0 mg/kg/injection, schedule: Q04DX003 (ip), vehicle: saline with Tween-80
[2] = dose: 200.0 mg/kg/injection, schedule: Q04DX003 (ip), vehicle: saline with Tween-80
[3] = dose: 100.0 mg/kg/injection, schedule: Q01DX009 (ip), vehicle: saline
[4] = dose: 100.0 mg/kg/injection, schedule: Q01DX001 (ip), vehicle: saline
[5] = dose: 200.0 mg/kg/injection, schedule: Q01DX001 (ip), vehicle: saline
[6] = dose: 100.0 mg/kg/injection, schedule: Q01DX001 (ip), vehicle: saline with Tween-80

Measured: T/C

COc1cccc2sc3ccccc3c(=O)c12
inactive: dose: 100.0 mg/kg/injection, schedule: Q01DX009 (ip), vehicle: saline with Tween-80 102 % of control | [1] 101 % of control | dose: 200.0 mg/kg/injection, schedule: Q01DX009 (ip), vehicle: saline with Tween-80 86 % of control | [2] 102 % of control | dose: 400.0 mg/kg/injection, schedule: Q01DX009 (ip), vehicle: saline with Tween-80 87 % of control | dose: 400.0 mg/kg/injection, schedule: Q04DX003 (ip), vehicle: saline with Tween-80 87 % of control

CCOC(=O)C1=C2c3ccc4cc(OC)ccc4c3CCC2(C)C(=O)C1 (stereo unspecified)
inactive: dose: 100.0 mg/kg/injection, schedule: Q04DX003 (sc), vehicle: steriod suspending solution 102 % of control | dose: 200.0 mg/kg/injection, schedule: Q04DX003 (sc), vehicle: steriod suspending solution 109 % of control | dose: 400.0 mg/kg/injection, schedule: Q04DX003 (sc), vehicle: steriod suspending solution 109 % of control

CC(C)NCCOC(=O)c1ccc(N)cc1
inactive: dose: 75.0 mg/kg/injection, schedule: Q01DX001 (ip), vehicle: saline 102 % of control | dose: 150.0 mg/kg/injection, schedule: Q01DX001 (ip), vehicle: saline 105 % of control

O=C(NC(=S)Nc1cccc2ccccc12)c1ccccc1F
inactive: dose: 100.0 mg/kg/injection, schedule: Q04DX002 (ip), vehicle: saline 102 % of control | dose: 200.0 mg/kg/injection, schedule: Q04DX002 (ip), vehicle: saline 88 % of control | dose: 400.0 mg/kg/injection, schedule: Q04DX002 (ip), vehicle: saline 102 % of control

N#CCc1ccc(Cl)cc1Cl
inactive: dose: 12.5 mg/kg/injection, schedule: Q04DX002 (ip), vehicle: Klucel (hydroxypropylcellulose) (HPC) 97 % of control | dose: 25.0 mg/kg/injection, schedule: Q04DX002 (ip), vehicle: Klucel (hydroxypropylcellulose) (HPC) 91 % of control | dose: 50.0 mg/kg/injection, schedule: Q04DX002 (ip), vehicle: Klucel (hydroxypropylcellulose) (HPC) 87 % of control

CC1(C)N=C(N)N=C(N)N1c1ccc(CCNS(=O)(=O)c2ccc(S(=O)(=O)F)cc2)cc1
inactive: dose: 0.8 mg/kg/injection, schedule: Q01DX009 (ip), vehicle: saline 97 % of control | dose: 4.0 mg/kg/injection, schedule: Q01DX009 (ip), vehicle: saline 104 % of control | dose: 20.0 mg/kg/injection, schedule: Q01DX009 (ip), vehicle: saline 103 % of control | [3] 103 % of control | dose: 500.0 mg/kg/injection, schedule: Q01DX009 (ip), vehicle: saline 108 % of control

COc1cc(Br)c(CC(=O)O)cc1OC
inactive: dose: 100.0 mg/kg/injection, schedule: Q04DX003 (ip), vehicle: acetone 96 % of control | dose: 200.0 mg/kg/injection, schedule: Q04DX003 (ip), vehicle: acetone 95 % of control | dose: 400.0 mg/kg/injection, schedule: Q04DX003 (ip), vehicle: acetone 93 % of control

CCC(=O)c1ccc(N=Nc2c(N)nc(N)nc2N)cc1
inactive: [4] 110 % of control | [5] 94 % of control

COc1cc([N+](=O)[O-])ccc1S(=O)(=O)Cl
inactive: dose: 25.0 mg/kg/injection, schedule: Q01DX009 (ip), vehicle: saline with Tween-80 91 % of control | dose: 25.0 mg/kg/injection, schedule: Q04DX002 (ip), vehicle: saline with Tween-80 104 % of control | dose: 25.0 mg/kg/injection, schedule: Q04DX003 (ip), vehicle: saline with Tween-80 97 % of control | dose: 50.0 mg/kg/injection, schedule: Q01DX001 (ip), vehicle: saline with Tween-80 101 % of control | dose: 50.0 mg/kg/injection, schedule: Q01DX009 (ip), vehicle: saline with Tween-80 91 % of control | dose: 50.0 mg/kg/injection, schedule: Q04DX002 (ip), vehicle: saline with Tween-80 93 % of control and 120 % of control | dose: 50.0 mg/kg/injection, schedule: Q04DX003 (ip), vehicle: saline with Tween-80 103 % of control | [6] 92 % of control | [1] 94 % of control | [2] 88 % of control

Cc1ccc(NC(=S)Nc2ccccc2F)cc1
inactive: [6] 94 % of control and 100 % of control | dose: 100.0 mg/kg/injection, schedule: Q04DX002 (ip), vehicle: saline with Tween-80 100 % of control and 104 % of control | dose: 200.0 mg/kg/injection, schedule: Q01DX001 (ip), vehicle: saline with Tween-80 98 % of control and 100 % of control | dose: 200.0 mg/kg/injection, schedule: Q04DX002 (ip), vehicle: saline with Tween-80 95 % of control | dose: 400.0 mg/kg/injection, schedule: Q01DX001 (ip), vehicle: saline with Tween-80 96 % of control and 103 % of control | dose: 400.0 mg/kg/injection, schedule: Q04DX002 (ip), vehicle: saline with Tween-80 92 % of control and 104 % of control

Cc1ccc2cccc3c(=O)c4cccc5cccc(sc1c23)c54
inactive: [4] 88 % of control | dose: 100.0 mg/kg/injection, schedule: Q01DX009 (ip), vehicle: other 92 % of control | [5] 97 % of control | dose: 200.0 mg/kg/injection, schedule: Q01DX009 (ip), vehicle: other 92 % of control | dose: 400.0 mg/kg/injection, schedule: Q01DX001 (ip), vehicle: saline 89 % of control | dose: 400.0 mg/kg/injection, schedule: Q01DX009 (ip), vehicle: other 92 % of control

CCN(CC)CCN1C(=O)CN=C(c2ccccn2)c2cc(Cl)ccc21
inactive: dose: 50.0 mg/kg/injection, schedule: Q01DX009 (ip), vehicle: saline 101 % of control | [3] 104 % of control | [1] 97 % of control | dose: 200.0 mg/kg/injection, schedule: Q01DX009 (ip), vehicle: saline 112 % of control | [2] 92 % of control

CC1(C)OCC(C(NC(=O)c2ccccc2)C(OC(=O)c2ccccc2)C2COC(C)(C)O2)O1 (stereo unspecified)
inactive: dose: 100.0 mg/kg/injection, schedule: Q04DX002 (ip), vehicle: Klucel (hydroxypropylcellulose) (HPC) 90 % of control | dose: 200.0 mg/kg/injection, schedule: Q04DX002 (ip), vehicle: Klucel (hydroxypropylcellulose) (HPC) 90 % of control | dose: 400.0 mg/kg/injection, schedule: Q04DX002 (ip), vehicle: Klucel (hydroxypropylcellulose) (HPC) 90 % of control

CCCCCCCCCCCC[N+](C)(C)C (tested in a mixture with another compound)
inactive: dose: 1.25 mg/kg/injection, schedule: Q01DX015 (ip), vehicle: saline 101 % of control | dose: 2.5 mg/kg/injection, schedule: Q01DX015 (ip), vehicle: saline 95 % of control | dose: 3.12 mg/kg/injection, schedule: Q01DX009 (ip), vehicle: saline 92 % of control | dose: 3.12 mg/kg/injection, schedule: Q04DX003 (ip), vehicle: saline 98 % of control | dose: 5.0 mg/kg/injection, schedule: Q01DX015 (ip), vehicle: saline 101 % of control | dose: 5.0 mg/kg/injection, schedule: Q04DX003 (ip), vehicle: saline 107 % of control | dose: 6.25 mg/kg/injection, schedule: Q01DX009 (ip), vehicle: saline 94 % of control | dose: 6.25 mg/kg/injection, schedule: Q04DX003 (ip), vehicle: saline 98 % of control | dose: 10.0 mg/kg/injection, schedule: Q01DX015 (ip), vehicle: saline 98 % of control | dose: 10.0 mg/kg/injection, schedule: Q04DX003 (ip), vehicle: saline 112 % of control | dose: 12.5 mg/kg/injection, schedule: Q01DX009 (ip), vehicle: saline 105 % of control | dose: 12.5 mg/kg/injection, schedule: Q04DX003 (ip), vehicle: saline 95 % of control | dose: 18.0 mg/kg/injection, schedule: Q01DX009 (ip), vehicle: saline 90 % of control | dose: 20.0 mg/kg/injection, schedule: Q01DX015 (ip), vehicle: saline 98 % of control | dose: 20.0 mg/kg/injection, schedule: Q04DX003 (ip), vehicle: saline 93 % of control | dose: 37.5 mg/kg/injection, schedule: Q01DX001 (ip), vehicle: saline 101 % of control | dose: 40.0 mg/kg/injection, schedule: Q01DX015 (ip), vehicle: saline 100 % of control | dose: 40.0 mg/kg/injection, schedule: Q04DX003 (ip), vehicle: Klucel (hydroxypropylcellulose) (HPC) 90 % of control

CC(=O)Oc1cc(-c2c(C)cc(C)cc2C)c(OC(C)=O)cc1C
inactive: dose: 100.0 mg/kg/injection, schedule: Q01DX009 (ip), vehicle: Klucel (hydroxypropylcellulose) (HPC) 104 % of control | dose: 100.0 mg/kg/injection, schedule: Q04DX003 (ip), vehicle: Klucel (hydroxypropylcellulose) (HPC) 94 % of control | dose: 200.0 mg/kg/injection, schedule: Q01DX009 (ip), vehicle: Klucel (hydroxypropylcellulose) (HPC) 97 % of control | dose: 200.0 mg/kg/injection, schedule: Q04DX003 (ip), vehicle: Klucel (hydroxypropylcellulose) (HPC) 90 % of control | dose: 400.0 mg/kg/injection, schedule: Q01DX009 (ip), vehicle: Klucel (hydroxypropylcellulose) (HPC) 97 % of control | dose: 400.0 mg/kg/injection, schedule: Q04DX003 (ip), vehicle: Klucel (hydroxypropylcellulose) (HPC) 95 % of control
